Data on 4 compounds can be found in ChEMBL document CHEMBL1158909, “A New Brominated Diphenyl Ether from a Philippine Dysidea Species” (J Nat Prod, 1990).

Activity calls are given as the source filed them. No cut-off for these calls is given here.

Assay [1] has as its system Staphylococcus aureus. Kind of assay: Antimicrobial activity against Staphylococcus aureus. The assay is classed as functional, organism-based.
The test system of assay [2] is Bacillus subtilis. Kind of assay: Antimicrobial activity against Bacillus subtilis. The assay is classed as functional, organism-based.

For `COc1c(Br)c(Br)c(Br)c(Br)c1Oc1ccccc1Br`, the result in assay [1] and in assay [2] was inactive.

`Oc1c(Br)c(Br)c(Br)c(Br)c1Oc1ccccc1Br`: the result in assay [1] and in assay [2] was Active.

For `COc1c(Br)c(Br)c(Br)c(Br)c1Oc1ccc(Br)cc1Br`, the result in assay [1] and in assay [2] was inactive.

For the compound `Oc1c(Br)c(Br)c(Br)c(Br)c1Oc1ccc(Br)cc1Br`, the result in assay [1] and in assay [2] was Active.
